Laboratory results as given in ChEMBL document CHEMBL3785086, “Design and synthesis of natural product derivatives with selective and improved cytotoxicity based on a sesquiterpene scaffold” (Bioorg Med Chem Lett, 2016).

System: MCF7
Test: Cytotoxicity against human MCF7 cells assessed as cell proliferation after 24 hrs by CCK-8 assay
Format: functional, cell-based
Conditions: MCF7, 24 h

SMILES	IC50 [µM]
C=C1CCC(c2coc(/C=C(\C)C(N)=O)c2)CC1	8.47
C/C(=C\c1cc(-c2ccc3c(c2)OCO3)cs1)C(N)=O	3.05
C/C(=C\c1ccc(-c2ccc(F)cc2)o1)C(N)=O	0.97
C/C(=C\c1ccc(-c2ccc(C)cc2)o1)C(N)=O	> 50
C/C(=C\c1cc(C2=CCCCC2)co1)C(N)=O	6.58
C/C(=C\c1cc(-c2ccc(Cl)cc2)cs1)C(N)=O	17.1
C/C(=C\c1nc(-c2ccc(F)cc2)cs1)C(N)=O	3.3
C/C(=C\c1cc(-c2ccc(S(C)(=O)=O)cc2)cs1)C(N)=O	> 50
C/C(=C\c1cc(-c2ccccc2)co1)C(N)=O	3.34
C/C(=C\c1cc(-c2ccc(C)cc2)cs1)C(N)=O	> 50
C/C(=C\c1cc(C2=CCCC2)co1)C(N)=O	15
C/C(=C\c1cc(-c2ccccc2C)cs1)C(N)=O	4.92
C/C(=C\c1cc(-c2ccc(F)cc2)co1)C(N)=O	2.21
C/C(=C\c1cc(-c2ccccc2)cs1)C(N)=O	2.68

System: HeLa
Test: Cytotoxicity against human HeLa cells assessed as cell proliferation after 24 hrs by CCK-8 assay
Format: functional, cell-based
Conditions: not given

SMILES	IC50 [µM]
C=C1CCC(c2coc(/C=C(\C)C(N)=O)c2)CC1	5.01
C/C(=C\c1cc(-c2ccc3c(c2)OCO3)cs1)C(N)=O	> 50
C/C(=C\c1ccc(-c2ccc(F)cc2)o1)C(N)=O	2.03
C/C(=C\c1ccc(-c2ccc(C)cc2)o1)C(N)=O	4.59
C/C(=C\c1cc(C2=CCCCC2)co1)C(N)=O	> 50
C/C(=C\c1cc(-c2ccc(Cl)cc2)cs1)C(N)=O	> 50
C/C(=C\c1nc(-c2ccc(F)cc2)cs1)C(N)=O	5.4
C/C(=C\c1cc(-c2ccc(S(C)(=O)=O)cc2)cs1)C(N)=O	> 50
C/C(=C\c1cc(-c2ccccc2)co1)C(N)=O	3.28
C/C(=C\c1cc(-c2ccc(C)cc2)cs1)C(N)=O	> 50
C/C(=C\c1cc(C2=CCCC2)co1)C(N)=O	17.6
C/C(=C\c1cc(-c2ccccc2C)cs1)C(N)=O	19.4
C/C(=C\c1cc(-c2ccc(F)cc2)co1)C(N)=O	11.8
C/C(=C\c1cc(-c2ccccc2)cs1)C(N)=O	12.7

System: not listed separately
Test: Cytotoxicity against human HO8910 cells assessed as cell proliferation after 24 hrs by CCK-8 assay
Format: functional, cell-based
Conditions: HO-8910, 24 h

SMILES	IC50 [µM]
C=C1CCC(c2coc(/C=C(\C)C(N)=O)c2)CC1	18
C/C(=C\c1cc(-c2ccc3c(c2)OCO3)cs1)C(N)=O	> 50
C/C(=C\c1ccc(-c2ccc(F)cc2)o1)C(N)=O	0.99
C/C(=C\c1ccc(-c2ccc(C)cc2)o1)C(N)=O	1.66
C/C(=C\c1cc(C2=CCCCC2)co1)C(N)=O	> 50
C/C(=C\c1cc(-c2ccc(Cl)cc2)cs1)C(N)=O	> 50
C/C(=C\c1nc(-c2ccc(F)cc2)cs1)C(N)=O	4.45
C/C(=C\c1cc(-c2ccc(S(C)(=O)=O)cc2)cs1)C(N)=O	> 50
C/C(=C\c1cc(-c2ccccc2)co1)C(N)=O	42.4
C/C(=C\c1cc(-c2ccc(C)cc2)cs1)C(N)=O	> 50
C/C(=C\c1cc(C2=CCCC2)co1)C(N)=O	> 50
C/C(=C\c1cc(-c2ccccc2C)cs1)C(N)=O	15.2
C/C(=C\c1cc(-c2ccc(F)cc2)co1)C(N)=O	> 50
C/C(=C\c1cc(-c2ccccc2)cs1)C(N)=O	> 50

System: A549
Test: Cytotoxicity against human A549 cells assessed as cell proliferation after 24 hrs by CCK-8 assay
Format: functional, cell-based
Conditions: A549, 24 h

SMILES	IC50 [µM]
C=C1CCC(c2coc(/C=C(\C)C(N)=O)c2)CC1	> 50
C/C(=C\c1cc(-c2ccc3c(c2)OCO3)cs1)C(N)=O	> 50
C/C(=C\c1ccc(-c2ccc(F)cc2)o1)C(N)=O	1.65
C/C(=C\c1ccc(-c2ccc(C)cc2)o1)C(N)=O	> 50
C/C(=C\c1cc(C2=CCCCC2)co1)C(N)=O	> 50
C/C(=C\c1cc(-c2ccc(Cl)cc2)cs1)C(N)=O	> 50
C/C(=C\c1nc(-c2ccc(F)cc2)cs1)C(N)=O	13.2
C/C(=C\c1cc(-c2ccc(S(C)(=O)=O)cc2)cs1)C(N)=O	> 50
C/C(=C\c1cc(-c2ccccc2)co1)C(N)=O	> 50
C/C(=C\c1cc(-c2ccc(C)cc2)cs1)C(N)=O	> 50
C/C(=C\c1cc(C2=CCCC2)co1)C(N)=O	16.6
C/C(=C\c1cc(-c2ccccc2C)cs1)C(N)=O	> 50
C/C(=C\c1cc(-c2ccc(F)cc2)co1)C(N)=O	14.9
C/C(=C\c1cc(-c2ccccc2)cs1)C(N)=O	> 50

System: not listed separately
Test: Cytotoxicity against human T24 cells assessed as cell proliferation after 24 hrs by CCK-8 assay
Format: functional, cell-based
Conditions: T-24, 24 h

SMILES	IC50 [µM]
C=C1CCC(c2coc(/C=C(\C)C(N)=O)c2)CC1	> 50
C/C(=C\c1cc(-c2ccc3c(c2)OCO3)cs1)C(N)=O	> 50
C/C(=C\c1ccc(-c2ccc(F)cc2)o1)C(N)=O	3.32
C/C(=C\c1ccc(-c2ccc(C)cc2)o1)C(N)=O	> 50
C/C(=C\c1cc(C2=CCCCC2)co1)C(N)=O	> 50
C/C(=C\c1cc(-c2ccc(Cl)cc2)cs1)C(N)=O	> 50
C/C(=C\c1nc(-c2ccc(F)cc2)cs1)C(N)=O	> 50
C/C(=C\c1cc(-c2ccc(S(C)(=O)=O)cc2)cs1)C(N)=O	> 50
C/C(=C\c1cc(-c2ccccc2)co1)C(N)=O	> 50
C/C(=C\c1cc(-c2ccc(C)cc2)cs1)C(N)=O	> 50
C/C(=C\c1cc(C2=CCCC2)co1)C(N)=O	> 50
C/C(=C\c1cc(-c2ccccc2C)cs1)C(N)=O	> 50
C/C(=C\c1cc(-c2ccc(F)cc2)co1)C(N)=O	> 50
C/C(=C\c1cc(-c2ccccc2)cs1)C(N)=O	> 50

System: not listed separately
Test: Cytotoxicity against human BGC823 cells assessed as cell proliferation after 24 hrs by CCK-8 assay
Format: functional, cell-based
Conditions: BGC-823, 24 h

SMILES	IC50 [µM]
C=C1CCC(c2coc(/C=C(\C)C(N)=O)c2)CC1	> 50
C/C(=C\c1cc(-c2ccc3c(c2)OCO3)cs1)C(N)=O	> 50
C/C(=C\c1ccc(-c2ccc(F)cc2)o1)C(N)=O	0.94
C/C(=C\c1ccc(-c2ccc(C)cc2)o1)C(N)=O	> 50
C/C(=C\c1cc(C2=CCCCC2)co1)C(N)=O	> 50
C/C(=C\c1cc(-c2ccc(Cl)cc2)cs1)C(N)=O	> 50
C/C(=C\c1nc(-c2ccc(F)cc2)cs1)C(N)=O	> 50
C/C(=C\c1cc(-c2ccc(S(C)(=O)=O)cc2)cs1)C(N)=O	> 50
C/C(=C\c1cc(-c2ccccc2)co1)C(N)=O	> 50
C/C(=C\c1cc(-c2ccc(C)cc2)cs1)C(N)=O	> 50
C/C(=C\c1cc(C2=CCCC2)co1)C(N)=O	> 50
C/C(=C\c1cc(-c2ccccc2C)cs1)C(N)=O	> 50
C/C(=C\c1cc(-c2ccc(F)cc2)co1)C(N)=O	> 50
C/C(=C\c1cc(-c2ccccc2)cs1)C(N)=O	> 50

System: not listed separately
Test: Cytotoxicity against mouse NIH/3T3 cells assessed as cell proliferation after 24 hrs by CCK-8 assay
Format: cell-based
Conditions: NIH3T3, 24 h

SMILES	IC50 [µM]
C=C1CCC(c2coc(/C=C(\C)C(N)=O)c2)CC1	> 50
C/C(=C\c1cc(-c2ccc3c(c2)OCO3)cs1)C(N)=O	> 50
C/C(=C\c1ccc(-c2ccc(F)cc2)o1)C(N)=O	0.96
C/C(=C\c1ccc(-c2ccc(C)cc2)o1)C(N)=O	> 50
C/C(=C\c1cc(C2=CCCCC2)co1)C(N)=O	> 50
C/C(=C\c1cc(-c2ccc(Cl)cc2)cs1)C(N)=O	> 50
C/C(=C\c1nc(-c2ccc(F)cc2)cs1)C(N)=O	> 50
C/C(=C\c1cc(-c2ccc(S(C)(=O)=O)cc2)cs1)C(N)=O	> 50
C/C(=C\c1cc(-c2ccccc2)co1)C(N)=O	> 50
C/C(=C\c1cc(-c2ccc(C)cc2)cs1)C(N)=O	> 50
C/C(=C\c1cc(C2=CCCC2)co1)C(N)=O	49.3
C/C(=C\c1cc(-c2ccccc2C)cs1)C(N)=O	> 50
C/C(=C\c1cc(-c2ccc(F)cc2)co1)C(N)=O	> 50
C/C(=C\c1cc(-c2ccccc2)cs1)C(N)=O	> 50
